Consider six compounds from paper PMC6076925, “Identification of Digestive Enzyme Inhibitors from Ludwigia octovalvis (Jacq.) P.H.Raven” (Evidence-based Complementary and Alternative Medicine : eCAM, 2018).

The test system of assay [1] is α–glucosidases. The assay is described as follows: α–glucosidase inhibition assay (crude intestinal enzyme, corn starch substrate). Format: biochemical, Wistar rats. Particulars: for Inhibition percentage α–glucosidases: mean ± standard deviation; for IC50: pure compounds, intestinal rat enzyme, starch as substrate. The method, then: The α–glucosidase assay was previously reported. In brief, corn starch (4 mg/mL) was digested by crude enzyme at 37°C during 10 minutes in a phosphate buffer pH 7 solution at a sample concentration of 0.6 mg/mL (dissolved in DMSO and water). Subsequently, released glucose was quantified by a glucose oxidase-based clinical reagent with the GOD–POD Trinder kit (Spinreact, Girona, Spain) following manufacturer's directions. All tests were performed in quadruplicate. Crude enzyme was obtained directly from healthy Wistar rats (12 h fasting). The small intestine was flushed several times with ice-cold isotonic buffer pH 7 and after the scraping of the mucosa, it was homogenized and stored at -20°C. Animal care and management were carried out under the guidelines of Mexican Official Standard NOM–062–ZOO–1999.
(§1) The logarithm of the concentration was plotted on the x-axis and the percentage of enzymatic inhibitory activity on the y-axis to obtain a semilogarithmic graphic.

Another assay deals with maltase. Set-up: method as in doi:10.1016/j.foodchem.2010.03.075. The settings on record: rat; read-out: IC50 inhibition of maltase; cited from earlier work.
The next assay deals with sucrase. Details: method as in doi:10.1016/j.foodchem.2010.03.075. The settings on record: rat; read-out: IC50 inhibition of sucrase; cited from earlier work.
Assay [2] has as its system α–glucosidases. In words: Type of inhibition and Ki on α–glucosidases by Lineweaver–Burk plots (maltodextrin substrate). The format is biochemical, Wistar rats. Particulars: for Type of enzymatic inhibition of α–glucosidases: Lineweaver–Burk plots. The procedure: (§2) The type of inhibition was determined quantifying the activity with and without inhibitor at different substrate concentrations (5–0.35 mg/mL for α–glucosidases and 0.05–0.2 μg/mL for pancreatic lipase) and comparing Lineweaver–Burk plots (inverse substrate concentration [S] and inverse reaction velocity V). In the case of the determination of α–glucosidase type of inhibition, the substrate was changed from corn starch to maltodextrin (MD100, Luzhou Bio–Chem Technology Co., Shandong, China), in order to have greater uniformity in the reaction.
Michaelis–Menten constant (Km) and apparent Km (Km^app) were obtained analysing the Lineweaver–Burk plots. These values allowed to obtain the inhibition constant (Ki) for competitive inhibitors using (2), where [I] represents inhibitor concentration.(2) Km^app=Km1+I/Ki

Assay [3] deals with T1, lipase from porcine pancreas (Sus scrofa, UniProt P00591).
T1 construct: lipase from porcine pancreas (PPL type II, 100–500 units/mg, L3126); purchased Sigma–Aldrich L3126; host or cells: porcine pancreas
T1 sequence (P00591 1-450): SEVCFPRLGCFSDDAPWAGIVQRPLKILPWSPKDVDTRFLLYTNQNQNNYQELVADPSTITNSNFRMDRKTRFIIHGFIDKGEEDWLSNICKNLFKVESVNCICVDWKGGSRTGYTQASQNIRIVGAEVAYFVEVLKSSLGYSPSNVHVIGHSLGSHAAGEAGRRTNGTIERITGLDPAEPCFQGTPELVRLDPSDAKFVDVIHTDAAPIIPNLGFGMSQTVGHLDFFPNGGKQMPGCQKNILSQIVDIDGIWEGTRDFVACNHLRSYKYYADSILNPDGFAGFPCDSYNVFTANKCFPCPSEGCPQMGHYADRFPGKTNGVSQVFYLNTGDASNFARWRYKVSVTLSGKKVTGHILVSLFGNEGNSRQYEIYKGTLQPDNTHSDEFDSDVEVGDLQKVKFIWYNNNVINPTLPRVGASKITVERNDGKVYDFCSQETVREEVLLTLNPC
In words: Pancreatic lipase inhibition assay (DMPTB/DTNB). Format: biochemical. The settings on record: for inhibition at 250 µg/mL: sample at 0.25 mg/mL. The method, then: Pancreatic lipase inhibition assay was previously reported. Briefly, the absorbance of a mixture of DTNB 0.2 mM, DMPTB 0.8 mM, NaCl 0.1M, CaCl2 2 mM, Triton X–100 0.04%, porcine lipase 65 μg/mL, and the sample (dissolved in DMSO and water) at 0.25 mg/mL was followed with a Thermo Scientific Genesys 20 Visible Spectrophotometer (Fisher Scientific, 4001000, Hampton, NH) at 412 nm every 20 s for five minutes and plotted (Excel, Microsoft) to obtain initial velocity value. The lipase was prepared as a stock at 10 mg/mL in Tris–HCl 25 mM pH 6.2 with 0.1 M NaCl, SDS 2 mM, and 250 μL/mL of glycerol. A control assay without substrate was carried out to discard nonspecific reactions with DTMB. All reactions were tested by triplicate.
as §1

Another assay deals with T2, pancreatic lipase (Sus scrofa, UniProt P00591).
T2 construct: lipase from porcine pancreas (PPL type II, 100–500 units/mg, L3126); purchased Sigma–Aldrich L3126; host or cells: porcine pancreas
T2 sequence (P00591 1-450): T1 sequence (P00591 1-450)
In words: Type of inhibition on pancreatic lipase by Lineweaver–Burk plots. Format: biochemical, porcine. The method, then:
as §2

Where [4] appears, read: mean ± standard deviation, read-out: Inhibition percentage Pancreatic lipase.

In the case of `C[C@H]1O[C@H](O[C@H]2[C@H](O)[C@@H](O)[C@@H](O[C@H]3[C@H](O)[C@@H](O)C(O)O[C@@H]3CO)O[C@@H]2CO)[C@H](O)[C@@H](O)[C@@H]1N[C@H]1C=C(CO)[C@@H](O)[C@H](O)[C@H]1O` (some centres unmarked) [Acarbose, acarbose, reference compound], in the assay on α–glucosidases [1] (evaluated at 5.8 µM), the “Inhibition percentage α–glucosidases” value was 50.0 ± 1.6∗ %.

Consider `CCOC(=O)c1cc(O)c(O)c(O)c1` [C1F1 (ethyl gallate), ethyl gallate], for which the concentration for half-maximal inhibition (IC50) on maltase was 415 µM; at α–glucosidases [1] it was 832 µM; at sucrase, 660 µM. Also, the “Inhibition percentage α–glucosidases” value in the assay on α–glucosidases [1] (sample at 0.6 mg/mL) stood at 98.4 ± 2.0%. The “Type of enzymatic inhibition of α–glucosidases” value in the assay on α–glucosidases [2] is given as “competitive enzymatic inhibition”. The results for the Ki at α–glucosidases [2] (inhibitor at 625 μM) and at α–glucosidases [2] (inhibitor at 1250 μM) were 636 µM and 315 µM, respectively. In addition, in assay [3] (setting [4]), the inhibition at 250 µg/mL turned out to be 23.2 ± 3%.

Regarding `O=C(O)c1cc(O)c(O)c(O)c1` [C2F1 (gallic acid), gallic acid], the IC50 is 390 µM on maltase, 969 µM against α–glucosidases [1] and 130 µM at sucrase. The “Inhibition percentage α–glucosidases” value in the assay with α–glucosidases [1] (sample at 0.6 mg/mL) was determined as 98.9 ± 0.6%. For the same compound, in the assay on α–glucosidases [2], the “Type of enzymatic inhibition of α–glucosidases” value is “competitive enzymatic inhibition”. In addition, the figures for the Ki on α–glucosidases [2] (inhibitor at 625 μM) and on α–glucosidases [2] (inhibitor at 1250 μM) were 436 µM and 208 µM, respectively.

For `O=c1cc(-c2ccc(O)c(O)c2)oc2cc(O)c([C@@H]3O[C@H](CO)[C@@H](O)[C@H](O)[C@H]3O)c(O)c12` [C4F4–P (isoorientin), isoorientin], the “Type of enzymatic inhibition of pancreatic lipase” value at pancreatic lipase was “uncompetitive enzymatic inhibition”. In addition, the half-maximal inhibitory concentration (IC50) in assay [3] (pure compound) was 201 µM. In addition, in assay [3] (setting [4]), the inhibition at 250 µg/mL amounted to 55.1 ± 3.1%.

For `O=c1cc(-c2ccc(O)c(O)c2)oc2cc(O)cc(O)c12` [Luteolin, reference compound], the IC50 at α–glucosidases [1] was 1260 µM; on α–glucosidases [1] (listed as luteolin) it was ~1260 µM. The “Inhibition percentage α–glucosidases” value with α–glucosidases [1] (sample at 0.6 mg/mL) turned out to be 66.3 ± 5.6%.

Consider `CCCCCCCCCCC[C@@H](C[C@@H]1OC(=O)[C@H]1CCCCCC)OC(=O)[C@H](CC(C)C)NC=O` [Orlistat, orlistat, reference compound], for which the inhibition at 1.6 µM in assay [3] (evaluated at 1.6 µM, mean ± standard deviation, read-out: Inhibition percentage Pancreatic lipase) was 50 ± 2.6%.
